# From patent publication US10053472B2, “Silicon-based fungicides and process for producing the same” (COUNCIL OF SCIENTIFIC & INDUSTRIAL RESEARCH, priority 2014, dated 2018)
# Columns and labels:
# [1] = system: Alternaria solani ATCC 11785; experiment: Broth microdilution antifungal susceptibility (MIC), plant pathogenic fungi; format: cell-based; conditions: ATCC11785, MIC = concentration exhibiting >90% inhibition of growth vs control, RPMI 1640, 48-72 h, read-out: Minimum Inhibitory Concentration, Alternaria solani ATCC 11785
# Description: (§1) In vitro antifungal assays were performed by broth microdilution method according to the Clinical and Laboratory Standards Institute (CLSI, formerly NCCL) methods M27-A3 and M-38-A2. The activity was checked against plant pathogenic fungi Fusarium oxysporum CMI 113138, Aspergillus flavus ATCC 11499, Claviceps purpurea CMI 44613, Alternaria solani ATCC 11785, Ustilago maydis PRL 1549 and yeast Dekkera bruxellensis ATCC 36234. Briefly each compound stock was prepared in DMSO at concentration of 12800 μg/ml. For assay compound stocks were serially diluted two fold in microtiter plate and 4 μl of this was used for assay to get a final concentration in the range of 256-2 μg/ml. Spores of the filamentous fungi (˜2×10^4 spores/ml) and yeast cells freshly grown in YPG broth in logarithmic phase (˜2×10^3 cfu/ml) were suspended in the RPMI 1640 medium and 196 μl from these were inoculated in the wells of the plate. The microtitre plate was incubated for 48-72 h. Growth was checked by visual observation and measuring absorbance at 600 nm using microtitre plate reader.
# [2] = system: Aspergillus flavus ATCC 11499; experiment: as above; format: cell-based; conditions: ATCC11499, MIC = concentration exhibiting >90% inhibition of growth vs control, RPMI 1640, 48-72 h, read-out: Minimum Inhibitory Concentration, Aspergillus flavus ATCC 11499
# Description: as §1
# [3] = system: Claviceps purpurea CMI 44613; experiment: as above; format: cell-based; conditions: CMI44613, MIC = concentration exhibiting >90% inhibition of growth vs control, RPMI 1640, 48-72 h, read-out: Minimum Inhibitory Concentration, Claviceps purpurea CMI 44613
# Description: as §1
# [4] = system: Fusarium oxysporum CMI 113138; experiment: as above; format: cell-based; conditions: CMI113138, MIC = concentration exhibiting >90% inhibition of growth vs control, RPMI 1640, 48-72 h, read-out: Minimum Inhibitory Concentration, Fusarium oxysporum CMI 113138
# Description: as §1
# [5] = system: Ustilago maydis PRL 1549; experiment: as above; format: cell-based; conditions: Mycosarcoma maydis, PRL1549; MIC = concentration exhibiting >90% inhibition of growth vs control; RPMI 1640, 48-72 h; read-out: Minimum Inhibitory Concentration, Ustilago maydis PRL 1549
# Description: as §1
# [6] = system: Dekkera bruxellensis ATCC 36234; experiment: Broth microdilution antifungal susceptibility (MIC), yeast; format: cell-based; conditions: Brettanomyces bruxellensis, ATCC36234; MIC = concentration exhibiting >90% inhibition of growth vs control; RPMI 1640, 48-72 h; read-out: Minimum Inhibitory Concentration, Dekkera bruxellensis ATCC 36234
# Description: as §1
# [7] = system: Aspergillus niger ATCC 10578; experiment: Antifungal susceptibility (MIC), human fungal pathogens; format: cell-based; conditions: ATCC10578, MIC = concentration exhibiting >90% inhibition of growth vs control, read-out: Minimum Inhibitory Concentration, A. niger ATCC 10578
# Description: as §1
# (§2) Antifungal activity of the compounds was also checked against human pathogens Candida albicans ATCC 24433, C. albicans ATCC 10231, Candida glabrata NCYC 388, Candida tropicalis ATCC 750, Cryptococcus neoformans ATCC 34554, Aspergillus niger ATCC 10578, by following procedure described below.
# [8] = system: C. albicans ATCC 10231; experiment: as above; format: cell-based; conditions: Candida albicans, ATCC10231; MIC = concentration exhibiting >90% inhibition of growth vs control; read-out: Minimum Inhibitory Concentration, C.albicans ATCC 10231
# Description: as §1, §2
# [9] = system: Candida albicans ATCC 24433; experiment: as above; format: cell-based; conditions: ATCC24433, MIC = concentration exhibiting >90% inhibition of growth vs control, read-out: Minimum Inhibitory Concentration, C.albicans ATCC 24433
# Description: as §1, §2
# [10] = system: Candida glabrata NCYC 388; experiment: as above; format: cell-based; conditions: Nakaseomyces glabratus, NCYC388; MIC = concentration exhibiting >90% inhibition of growth vs control; read-out: Minimum Inhibitory Concentration, C.glabrata NCYC 388
# Description: as §1, §2
# [11] = system: Candida tropicalis ATCC 750; experiment: as above; format: cell-based; conditions: ATCC750, MIC = concentration exhibiting >90% inhibition of growth vs control, read-out: Minimum Inhibitory Concentration, C.tropicalis ATCC 750
# Description: as §1, §2
# [12] = system: Cryptococcus neoformans ATCC 34554; experiment: as above; format: cell-based; conditions: ATCC34554, MIC = concentration exhibiting >90% inhibition of growth vs control, read-out: Minimum Inhibitory Concentration, C.neoformans ATCC 34554
# Description: as §1, §2
# [13] = system: C. albicans ATCC 24433; experiment: Spectrophotometric sterol analysis (effect on sterol composition); format: cell-based, Candida albicans; conditions: 0, 0.125, 0.25, 0.50, 1 and 2 μg/ml of compound, 16 h, 28° C.; heptane sterol extract scanned 220-300 nm (FIG. 1)
# Description: FIG. 1: Spectrophotometric sterol analysis of Candida albicans ATCC 24433 exposed with different concentrations of compounds of the present invention and reference compounds.
# Overnight grown culture of C. albicans ATCC 24433 was inoculated (10^6 cells/ml) in 50 ml 1% YPG broth containing 0, 0.125, 0.25, 0.50, 1, and 2 μg/ml of compounds. The flasks were incubated for 16 h with shaking at 28° C. The stationary-phase cells were harvested by centrifugation at 8000 rpm for 10 min and washed once with sterile distilled water. The net wet weight of the cell pellet was determined. To the 100 mg cell pellet, 3 ml of 25% alcoholic potassium hydroxide solution (25 g of KOH and 35 ml of sterile distilled water, brought to 100 ml with 100% ethanol), was added to each pellet and vortex mixed for 1 min. Cell suspensions were transferred to sterile borosilicate glass screw-cap tubes and were incubated in an 85° C. water bath for 1 h. Following incubation, tubes were allowed to cool to room temperature. Sterols were then extracted by addition of a mixture of 1 ml of sterile distilled water and 3 ml of n-heptane followed by vigorous vortex mixing for 3 min. The heptane layer was transferred to a clean borosilicate glass screw-cap tube and stored at −20° C. for as long as 24 h. Prior to analysis, a 20 μl aliquot of sterol extract was diluted fivefold in 100% ethanol and scanned spectrophotometrically between 220 and 300 nm on Spectrophotometer.
# [14] = system: tested plant and human pathogens; experiment: Overall antifungal activity, summary of susceptibility testing; format: cell-based; conditions: summary statement on Tables 1 and 2
# Description: as §1, §2
SMILES,MIC [1] [µg/mL],MIC [2] [µg/mL],MIC [3] [µg/mL],MIC [4] [µg/mL],MIC [5] [µg/mL],MIC [6] [µg/mL],MIC [7] [µg/mL],MIC [8] [µg/mL],MIC [9] [µg/mL],MIC [10] [µg/mL],MIC [11] [µg/mL],MIC [12] [µg/mL],Height of sterol absorbance peaks (ergosterol concentration) [13],Antifungal activity against the tested plant and human pathogens (in words) [14]
"CC(Cc1ccc(C(C)(C)C)cc1)CN1CC[Si](C)(C)CC1 (racemic) [NDS100414, (R,S)1-(3-(4-(tert-butyl)phenyl)-2-methylpropyl)-4,4-dimethyl-1,4-azasilinane]",32,128,4,64,32,16,0.5,0.5,4,4,64,2,dose-dependent decrease in the height of the absorbance peaks,potent antifungal activity
"CC(Cc1ccc(C(C)(C)C)cc1)CN1CCCCC1 (centres unmarked) [Fenpropidin, reference compound]",128,256,32,256,128,128,0.5,1,0.5,0.25,8,0.5,dose-dependent decrease in the height of the absorbance peaks,potent antifungal activity
"CC(Cc1ccc(C(C)(C)C)cc1)CN1C[C@@H](C)O[C@@H](C)C1 (some centres unmarked) [Fenpropimorph, reference compound]",> 256,> 256,32,> 256,> 256,,1,0.25,0.125,0.125,4,0.125,dose-dependent decrease in the height of the absorbance peaks,potent antifungal activity
CC(Cc1ccc(C(C)(C)C)cc1)C(=O)N1CC[Si](C)(C)CC1 (centres unmarked) [NDS100415],> 256,> 256,> 256,> 256,> 256,> 256,> 256,> 256,> 256,> 256,> 256,> 256,,
CCC(C)(C)c1ccc(CC(C)CN2CC[Si](C)(C)CC2)cc1 (centres unmarked) [NDS100444],32,64,16,64,< 2,4,0.5,0.5,4,8,64,2,dose-dependent decrease in the height of the absorbance peaks,potent antifungal activity
"CC(Cc1ccc([Si](C)(C)C)cc1)CN1CC[Si](C)(C)CC1 (centres unmarked) [NDS100579, 4,4-dimethyl-1-(2-methyl-3-(4-(trimethylsilyl)phenyl)propyl)-1,4-azasilinane]",> 256,> 256,64,> 256,> 256,,0.5,1,2,2,64,2,,
CC(Cc1ccc(C(C)(C)C)cc1)C(=O)NC[Si](C)(C)c1ccccc1 (centres unmarked) [NDS100582],> 256,> 256,> 256,> 256,> 256,,> 256,> 256,> 256,> 256,> 256,> 256,,
